In article PMC7108740, “Exploring the molecular structures that confer ligand selectivity for galanin type II and III receptors” (PLoS ONE, 2020):
Ends that are not written are not given here.

How the values were obtained:
Format in all cases: cell-based
[1] = molecular target: T1, GALR3 single mutant V^186I (Homo sapiens, UniProt O60755, V186I); assay: SRE-luc luciferase assay, GALR3 V186I; settings: GALR3 V^186I; SRE-luc in HEK293 Gqi cells, ligand 6 h; mean ± S.E.; SEM
T1 construct: expressed in transfected cells; host or cells: HEK293 cells stably expressing Gqi
Source text: (§1) For domain swapping between GALR2 and GALR3, individual cDNA fragments of interest were amplified by polymerase chain reaction (PCR) with Pfu polymerase (ELPIS Biotech, Daejeon, Korea) and two specific primers, one corresponding to the 5' or 3' end of the GALR2 or GALR3 cDNA and the other to the region of overlap between the two receptors. The two resulting fragments, one from GALR2 and the other from GALR3, were subjected to a second round of PCR to generate the chimeric cDNAs. To construct single, double-, triple-, pentuple-, hextuple-, and septuple-mutant receptors, amino acids of GALR3 were substituted for the amino acids at the corresponding positions in GALR2 using PCR-based site-directed mutagenesis. All of the chimeric constructs were cloned into the pcDNA3 expression vector at HindⅢ and XbaⅠ sites. The DNA sequences of the chimeras were verified by automatic sequencing. […] The luciferase activity in 50 μl cell extract was determined using a luciferase assay system according to the standard protocol for the Synergy 2 Multi-Mode Microplate Reader (BioTek, Winooski, VT, USA). […] The concentrations of agonists that induced half-maximal stimulation (EC50) were calculated using the GraphPad PRISM5 software (GraphPad software, Inc., San Diego, CA). […]

[2] = molecular target: T2, GALR3 single mutant A^190V (Homo sapiens, UniProt O60755, A190V); assay: SRE-luc luciferase assay, GALR3 A190V; settings: GALR3 A^190V; SRE-luc in HEK293 Gqi cells, ligand 6 h; mean ± S.E.; SEM
T2 construct: expressed in transfected cells; host or cells: HEK293 cells stably expressing Gqi
Source text: as §1

[3] = molecular target: T3, GALR3 single mutant G^192S (Homo sapiens, UniProt O60755, G192S); assay: SRE-luc luciferase assay, GALR3 G192S; settings: GALR3 G^192S; SRE-luc in HEK293 Gqi cells, ligand 6 h; mean ± S.E.; SEM
T3 construct: expressed in transfected cells; host or cells: HEK293 cells stably expressing Gqi
Source text: as §1

[4] = molecular target: T4, GALR3 mutant L^184M,V^186I,A^187C (Homo sapiens, UniProt O60755, A187C/L184M/V186I); assay: SRE-luc luciferase assay, GALR3 L184M,V186I,A187C; settings: GALR3 L^184M,V^186I,A^187C; SRE-luc in HEK293 Gqi cells, ligand 6 h; mean ± S.E.; SEM
T4 construct: expressed in transfected cells; host or cells: HEK293 cells stably expressing Gqi
Source text: as §1

[5] = molecular target: T5, GALR3 mutant L^184M,V^186I,A^190V (Homo sapiens, UniProt O60755, A190V/L184M/V186I); assay: SRE-luc luciferase assay, GALR3 L184M,V186I,A190V; settings: GALR3 L^184M,V^186I,A^190V; SRE-luc in HEK293 Gqi cells, ligand 6 h; mean ± S.E.; SEM
T5 construct: expressed in transfected cells; host or cells: HEK293 cells stably expressing Gqi
Source text: as §1

[6] = molecular target: T6, GALR3 mutant A^190V,A^191F,G^192S (Homo sapiens, UniProt O60755, A190V/A191F/G192S); assay: SRE-luc luciferase assay, GALR3 A190V,A191F,G192S; settings: GALR3 A^190V,A^191F,G^192S; SRE-luc in HEK293 Gqi cells, ligand 6 h; mean ± S.E.; SEM
T6 construct: expressed in transfected cells; host or cells: HEK293 cells stably expressing Gqi
Source text: as §1

[7] = molecular target: T7, GALR3 mutant L^184M,V^186I,A^187C, A^190V,G^192S (Homo sapiens, UniProt O60755, A187C/A190V/G192S/L184M/V186I); assay: SRE-luc luciferase assay, GALR3 pentuple mutant (G192S); settings: GALR3 L^184M,V^186I,A^187C, SRE-luc in HEK293 Gqi cells, ligand 6 h, mean ± S.E., SEM
T7 construct: expressed in transfected cells; host or cells: HEK293 cells stably expressing Gqi
Source text: as §1

[8] = molecular target: T8, GALR3 single mutant F^265P (Homo sapiens, UniProt O60755); assay: SRE-luc luciferase assay, GALR3 F265P; settings: GALR3 F^265P; SRE-luc in HEK293 Gqi cells, ligand 6 h; mean ± S.E.
T8 construct: expressed in transfected cells; host or cells: HEK293 cells stably expressing Gqi
Source text: as §1

T2 sequence (O60755 whole entry A190V): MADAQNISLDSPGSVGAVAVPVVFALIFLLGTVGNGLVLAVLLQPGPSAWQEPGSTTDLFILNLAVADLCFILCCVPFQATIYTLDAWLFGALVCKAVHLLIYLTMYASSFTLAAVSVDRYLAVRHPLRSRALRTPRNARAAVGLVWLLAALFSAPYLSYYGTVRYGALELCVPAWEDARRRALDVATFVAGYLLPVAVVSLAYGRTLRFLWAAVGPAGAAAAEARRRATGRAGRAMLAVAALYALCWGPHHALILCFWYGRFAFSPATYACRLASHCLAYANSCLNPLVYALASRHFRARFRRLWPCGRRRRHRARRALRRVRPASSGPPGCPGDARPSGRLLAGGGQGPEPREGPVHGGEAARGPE
T3 sequence (O60755 whole entry G192S): as the sequence (O60755 whole entry A190V) above, with V190A, G192S counted along it
T4 sequence (O60755 whole entry L184M/V186I/A187C): as the sequence (O60755 whole entry A190V) above, with L184M, V186I, A187C, V190A counted along it
T1 sequence (O60755 whole entry V186I): as the sequence (O60755 whole entry A190V) above, with V186I, V190A counted along it
T6 sequence (O60755 whole entry A190V/A191F/G192S): as the sequence (O60755 whole entry A190V) above, with A191F, G192S counted along it
T7 sequence (O60755 whole entry L184M/V186I/A187C/A190V/G192S): as the sequence (O60755 whole entry A190V) above, with L184M, V186I, A187C, G192S counted along it
T5 sequence (O60755 whole entry L184M/V186I/A190V): as the sequence (O60755 whole entry A190V) above, with L184M, V186I counted along it
T8 sequence (O60755 whole entry F265L): as the sequence (O60755 whole entry A190V) above, with V190A, F265L counted along it

EC50 [1] | EC50 [2] | EC50 [3] | EC50 [4] | EC50 [5] | EC50 [6] | EC50 [7] | EC50 [8] | Molecule
513 ± 158 nM | 468 ± 105 nM | 355 ± 109 nM | 457 ± 118 nM | 324 ± 89.2 nM | 123 ± 39.8 nM | 145 ± 24.3 nM |  | NWTPQAMLYLKGPQ-NH2 [P^13-SPX]
141 ± 45.8 nM | 77.6 ± 18.7 nM | 35.5 ± 12.6 nM | 115 ± 2.61 nM | 49 ± 16.6 nM | 33.9 ± 11 nM | 33.9 ± 9.89 nM | > 1000 nM | CSCC[C@H](NC(=O)[C@H](C)NC(=O)[C@H](CCC(N)=O)NC(=O)[C@@H]1CCCN1C(=O)[C@@H](NC(=O)[C@H](Cc1c[nH]c2ccccc12)NC(=O)[C@@H](N)CC(N)=O)[C@@H](C)O)C(=O)N[C@@H](CC(C)C)C(=O)N[C@@H](Cc1ccc(O)cc1)C(=O)N[C@@H](CC(C)C)C(=O)N[C@@H](CCCCN)C(=O)NCC(=O)N[C@@H](C)C(=O)N[C@@H](CCC(N)=O)C(N)=O [SPX, reference compound]
